In this assay the test system is Haemonchus contortus. Kind of assay: In vivo nematode test Haemonchus contortus/sheep. The note with it: sheep infected experimentally with Haemonchus contortus; pure active compound orally and/or intravenously; dose after which egg excretion with the faeces has stopped completely. Here is the method:
Haemonchus contortus/sheep
Sheep infected experimentally with Haemonchus contortus were treated after the prepatency period of the parasite had elapsed. The active compounds were administered orally and/or intravenously in the form of the pure active compound.
The degree of effectiveness is determined by quantitatively determining the nematode eggs excreted with the faeces before and after the treatment.
If egg excretion has stopped completely after the treatment, this means that the nematodes were aborted or are damaged to such an extent that they no longer produce eggs (Dosis effective).
Active compounds which have been tested and effective dosage rates (Dosis effective) can be seen from the table which follows: […]

Molecules are shown by their SMILES.

In the case of `CCC(C)C(C(=O)OC(C)C(=O)N(C)C(C(=O)OC(C)C(=O)N(C)C(C(=O)OC(C)C(=O)O)C(C)CC)C(C)CC)N(C)C(=O)OCc1ccccc1` [Example 3, N-Benzyloxycarbonyl-N-methyl-L-isoleucyl-D -lactyl-N-methyl-L-isoleucyl-D-lactyl-N-methyl-n-isoleucyl-D-lactic acid], the “Dosis effective” value is 10 mg/kg.
